Patent publication US20140349970A1 (ABBVIE INC., priority 2009, published 2014)
Like-named read-outs stand apart in the source and are kept apart here.

Target: T1, Syk catalytic domain (aa 356-635 with a C-terminal His-tag) (Homo sapiens, UniProt P43405)
T1 construct: His-tag (C); made in house
Experiment: In vitro Syk kinase activity measured by trFRET, Syk catalytic domain
Format: biochemical
Description: In Vitro Syk Kinase Activity Measured by Time-Resolved Fluorescence Resonance Energy Transfer (trFRET)
0.14 nM purified Syk catalytic domain (aa 356-635 with a C-terminal His-tag purified in-house by immobilized metal ion affinity chromatography) was mixed with 0.2 μM peptide substrate (biotin-TYR1, Sequence: Biotin-(Ahx)-GAEEEIYAAFFA-COOH) at varying inhibitor concentrations in reaction buffer: 50 mM MOPSO pH 6.5, 10 mM MgCl2, 2 mM MnCl2, 2.5 mM DTT, 0.01% BSA, 0.1 mM Na3VO4 and 0.001 mM ATP. After about 60 min incubation at rt, the reaction was quenched by addition of EDTA (final concentration: 100 mM) and developed by addition of revelation reagents (final approximate concentrations: 30 mM HEPES pH 7.0, 0.06% BSA, 0.006% Tween-20, 0.24 M KF, 80 ng/mL PT66K (europium labeled anti-phosphotyrosine antibody cat #61T66KLB Cisbio, Bedford, Mass.) and 0.6 μg/mL SAXL (Phycolink streptavidin-allophycocyanin acceptor, cat #PJ255, Prozyme, San Leandro, Calif.). The developed reaction was incubated in the dark either at about 4° C. for about 14 h or for about 60 min at rt, then read via a time-resolved fluorescence detector (Rubystar, BMG) using a 337 nm laser for excitation and monitoring emission wavelengths at 665 nm. Within the linear range of the assay, the observed signal at 665 nm was directly related to phosphorylated product and can be used to calculate the IC50 values.
MOPSO buffer contains: 50 mM MOPSO pH 6.5, 10 mM MgCl2, 2 mM MnCl2, 2.5 mM DTT, 0.01% BSA, and 0.1 mM Na3VO4 HEPES buffer contains: 50 mM HEPES pH 7.1, 2.5 mM DTT, 10 mM MgCl2, 2 mM MnCl2, 0.01% BSA, and 0.1 mM Na3VO4 MOPS buffer contains: 20 mM MOPS pH 7.2, 10 mM MgCl2, 5 mM EGTA, 5 mM Beta-phosphoglycerol, 1 mM Na3VO4, 0.01% Triton-X-100 and 1 mM DTT
Biotin-TYR1-peptide sequence: Biotin-(Ahx)-GAEEEIYAAFFA-COOH Biotin-TYR2-peptide sequence: Biotin-(Ahx)-AEEEYFFLFA-amide KinEASE 51 peptides were purchased from Cisbio (cat #62ST0PEB, Bedford, Mass.)
PT66K was purchased from Cisbio (cat #61T66KLB, Bedford, Mass.) EuSTK was purchased from Cisbio (cat #62ST0PEB, Bedford, Mass.) SAXL was purchased from Prozyme (cat #PJ25S, San Leandro, Calif.) Human T-Blasts IL-2 pSTAT5 Cellular Assay

[1] = Syk catalytic domain (aa 356-635), trFRET, 0.001 mM ATP

Row | SMILES | IC50 [nM] | IC50 [1] [nM]
1 | Cn1ncc2cnc3[nH]c(-c4ccc[nH]4)cc3c21 [T.3.1.2] | 100 to 1000 | –
2 | CS(=O)(=O)c1cccc(-c2cc3c(ncc4cnc(C5CCCOC5)n43)[nH]2)c1 (centres unmarked) [M.1.5] | – | 100 to 1000
3 | CCc1c[nH]c2ncc3c(-c4ccc(C(=O)NC5CC5)cc4)nn(C)c3c12 [N.1.70] | – | 100 to 1000
4 | CC(=O)NCCCc1ncc2cnc3[nH]c(-c4cnn(C)c4)cc3n12 [J.2.1.3] | – | 100 to 1000
5 | CCCCC(=O)NCc1cccc(-c2cc3c(ncc4cnn(C)c43)[nH]2)c1 [J.1.1.4] | – | 100 to 1000
6 | CNC(=O)c1cccc(-c2cc3c(ncc4cnn(C)c43)[nH]2)c1 [N.1.4] | – | < 100
7 | COc1ccc2c(c1)c(-c1cc3c(ncc4cnc([C@@H]5CC[C@H](N)C5)n43)[nH]1)cn2C (relative stereo) [T.1.1, cis-3-(7-(5-Methoxy-1-methyl-1H-indol-3-yl)-6H-imidazo[1,5-a]pyrrolo[2,3-e]pyrazin-1-yl)cyclopentanamine diacetate] | – | < 100
8 | Cn1cc(-c2cc3c(ncc4cnn(C)c43)[nH]2)c2cc(C(=O)NC(C)(C)CO)ccc21 [J.2.2.1] | – | < 100
9 | COCCCc1ncc2cnc3[nH]c(-c4cn(C)c5ccc(OC)cc45)cc3n12 [M.1.14] | – | < 100
10 | CCc1c(-c2ccc(OCCN3CCOCC3)cc2)[nH]c2ncc3cnn(C)c3c12 [N.1.45] | – | 100 to 1000
11 | COc1cnc2c(c1)c(-c1cc3c(ncc4cnn(C)c43)[nH]1)cn2C [AC.2.2] | < 100 | –
12 | CCc1c(-c2ccc(C(C)(C)O)cc2)[nH]c2ncc3cncn3c12 [S.1.1] | < 100 | –
13 | Cn1cc(-c2cc3c(ncc4cnn(C)c43)[nH]2)c2cc(C(=O)NCCO)ccc21 [J.1.8.7] | – | < 100
14 | Cn1cc(-c2cc3c(ncc4cnn(C)c43)[nH]2)c2ccccc21 [N.1.24] | – | < 100
15 | COc1ccc2c(c1)c(-c1cc3c(ncc4nccn43)[nH]1)cn2C [M.1.20] | – | 100 to 1000
16 | Cn1ncc2cnc3[nH]c(-c4cccc(CN)c4)cc3c21 [T.3.1, (3-(1-Methyl-1,6-dihydropyrazolo[3,4-d]pyrrolo[2,3-b]pyridin-7-yl)phenyl)methanamine] | – | 1000 to 10000
17 | CCc1c(-c2ccc(N3CCOCC3)cc2)[nH]c2ncc3cnn(C)c3c12 [N.1.31] | – | 100 to 1000

Row | SMILES | IC50 [nM] | IC50 [1] [nM]
18 | COc1ccc2c(c1)c(-c1cc3c(ncc4cnc(CCCN)n43)[nH]1)cn2C [T.1.1.3] | – | < 100
19 | Cc1ccc(-c2cc3c(ncc4cnc(N(C)C)n43)[nH]2)cc1 [M.1.16] | – | 100 to 1000
20 | CCc1c(-c2ccc(C(C)(C)O)cc2)[nH]c2ncc3cccn3c12 [S.1.6] | < 100 | –
21 | COc1ccc(-c2nn(C)c3c2cnc2[nH]cc(C#N)c23)cc1 [M.2.3] | – | < 100
22 | COc1ccc2c(c1)c(-c1cc3c(ncc4cnn(C)c43)[nH]1)cn2CCN(C)C [N.2.13] | – | 100 to 1000
23 | Cn1nc(-c2ccc(C(C)(C)O)cc2)c2cnc3[nH]ccc3c21 [S.1.3] | < 100 | –
24 | COCCc1nc(-c2ccc(OC)cc2)c2cnc3[nH]ccc3n12 [N.1.88] | – | 100 to 1000
25 | Cc1ncc2cnc3[nH]c(-c4cnn(C)c4)cc3n12 [M.2.1] | – | 100 to 1000
26 | Cc1ccc(-c2cc3c(ncc4cnn(C)c43)[nH]2)c(C)c1 [N.1.47] | – | 1000 to 10000
27 | CCc1c(-c2cnn(C)c2)[nH]c2ncc3cnn(C)c3c12 [N.1.44] | – | 100 to 1000
28 | CCc1c[nH]c2ncc3c(-c4ccc(OC(C)C)cc4)nn(C)c3c12 [N.1.69] | – | 100 to 1000
29 | Cc1nc(-c2ccc(C(C)(C)O)cc2)c2cnc3[nH]c(Br)cc3n12 [Example 11, 2-(4-(7-Bromo-1-methyl-6H-imidazo[1,5-a]pyrrolo[2,3-e]pyrazin-3-yl)phenyl)propan-2-ol] | – | 100 to 1000
30 | COCCC(=O)NCc1cccc(-c2cc3c(ncc4cnn(C)c43)[nH]2)c1 [J.1.1.2] | – | 100 to 1000
31 | CS(=O)(=O)c1cccc(-c2cc3c(ncc4cnc(CCCN)n43)[nH]2)c1 [T.1.1.6] | – | 100 to 1000
32 | Cc1c(-c2ccc(C(C)(C)O)cc2)[nH]c2ncc3nncn3c12 [S.1.4] | 100 to 1000 | –
33 | Cn1cc(-c2cc3c(ncc4cnn(C)c43)[nH]2)c2ccc(C(=O)O)cc21 [AN.1.3] | < 100 | –

Now from value to compound:

Row | IC50 [nM] | IC50 [1] [nM] | SMILES
34 | 100 to 1000 | – | COc1ccc(-c2nc([C@H]3CCC[C@@H](N)C3)n3c2cnc2[nH]ccc23)cc1 [T.3.1.3]
35 | 100 to 1000 | – | Cc1nc(-c2ccc(CC(C)(C)O)cc2)c2cnc3[nH]ccc3n12 [AC.1.35]
36 | 100 to 1000 | – | O=C(c1ccc(-c2nc(C3CCCCC3)n3c2cnc2[nH]ccc23)cc1)N1CCOCC1 [AC.3.28]
37 | 100 to 1000 | – | CC(=O)Nc1cccc(-c2nc(C3CCCCC3)n3c2cnc2[nH]ccc23)c1 [AC.3.3]
38 | 100 to 1000 | – | CCCNC(=O)c1cccc(-c2nc(C)n3c2cnc2[nH]ccc23)c1 [AC.1.4]
39 | 100 to 1000 | – | Cc1nc(-c2ccc(S(=O)(=O)NC3CC3)cc2)c2cnc3[nH]ccc3n12 [AC.1.40]
40 | < 100 | – | Cc1nc(-c2ccc(C(C)(C)CO)cc2)c2cnc3[nH]ccc3n12 [AC.1.7]
41 | – | 100 to 1000 | CC(=O)NCc1nc(-c2ccc(C(C)(C)O)cc2)c2cnc3[nH]ccc3n12 [J.2.1.8]
42 | – | 100 to 1000 | COc1ccc(-c2nc(C)n3c2cnc2[nH]ccc23)cc1C(=O)NCCO [J.1.7.3]
43 | – | 1000 to 10000 | CC(=O)N1CC=C(c2ncn3c2cnc2[nH]ccc23)CC1 [J.2.1.5]
44 | < 100 | – | Cc1cc(-c2nc(C)n3c2cnc2[nH]ccc23)ccc1N1CCN(C)CC1 [AC.1.30]
45 | 1000 to 10000 | – | CC(C)(O)c1ccc(-c2nc(CN)n3c2cnc2[nH]ccc23)cc1 [AC.5.6, 2-(4-(1-(Aminomethyl)-6H-imidazo[1,5-a]pyrrolo[2,3-e]pyrazin-3-yl)phenyl)propan-2-ol]
46 | – | 100 to 1000 | CCCNC(=O)c1cc(-c2nc(C)n3c2cnc2[nH]ccc23)ccc1OC [J.1.7.1]
47 | 100 to 1000 | – | CN(C)C(=O)c1ccc(-c2nc(C3CCCCC3)n3c2cnc2[nH]ccc23)cc1 [AC.3.22]
48 | < 100 | – | Cc1nc(-c2ccc(C(C)(C)O)s2)c2cnc3[nH]ccc3n12 [S.1.11]
49 | < 100 | – | CCCNC(=O)c1ccc(-c2nc(C)n3c2cnc2[nH]ccc23)cc1 [AC.1.29]
50 | – | 1000 to 10000 | COc1ccc(-c2cc3c(ncc4c(C)ncn43)[nH]2)cc1 [M.1.23]
51 | 1000 to 10000 | – | COc1ccc(-c2nc(C)n3c2cnc2[nH]ccc23)c(CO)c1 [AC.1.2]
52 | 100 to 1000 | – | CC(C)(O)c1ccc(-c2nc(CN3CCC(N)CC3)n3c2cnc2[nH]ccc23)cc1 [P.3.1.8]
53 | 100 to 1000 | – | Cc1nc(-c2ccc(CO)nc2)c2cnc3[nH]ccc3n12 [AC.1.3]
54 | – | 100 to 1000 | CC(C)(O)c1ccc(-c2nc(C3CCOCC3)n3c2cnc2[nH]ccc23)cc1 [N.1.84]
55 | 1000 to 10000 | – | CC(C)(O)c1ccc(-c2ncn3c2cnc2[nH]cc(C4=CCNCC4)c23)cc1 [AC.5.4]
56 | 100 to 1000 | – | CS(=O)(=O)NCc1ccc(-c2nc(C3CCCCC3)n3c2cnc2[nH]ccc23)cc1 [AC.3.18]
57 | – | 100 to 1000 | COc1ccc2c(c1)c(-c1cc3c(ncc4cnc([C@@H]5CCN(C(C)=O)C5)n43)[nH]1)cn2C [J.2.1.1]
58 | 1000 to 10000 | – | COc1ccc(-c2nc(C)n3c2cnc2[nH]ccc23)c(OC)c1 [AC.1.1]
59 | 100 to 1000 | – | CN(C)S(=O)(=O)c1ccc(-c2nc(C3CCCCC3)n3c2cnc2[nH]ccc23)cc1 [AC.3.29]
60 | 100 to 1000 | – | Cc1nc(-c2cnn(CC(C)(C)O)c2)c2cnc3[nH]ccc3n12 [AC.1.28]
61 | – | < 100 | CC(=O)N1CCC(O)(c2ccc(-c3nc(C)n4c3cnc3[nH]ccc34)cc2)CC1 [J.2.1.6]
62 | < 100 | – | Cc1nc(-c2ccc(C(C)(C)O)c(F)c2)c2cnc3[nH]ccc3n12 [AC.1.20]
